According to ChEMBL document CHEMBL3580614, “Hypermongones A-J, Rare Methylated Polycyclic Polyprenylated Acylphloroglucinols from the Flowers of Hypericum monogynum” (J Nat Prod, 2015):

Legend:
RAW264.7 [1] = experiment: Antiinflammatory activity in mouse RAW264.7 cells assessed as inhibition of LPS-induced NO production incubated for 2 hrs prior to LPS-challenge measured after 24 hrs by Greiss assay; assay type: functional, cell-based
RAW264.7 [2] = experiment: Cytotoxicity against mouse RAW264.7 cells assessed as cell viability up to 100 uM; assay type: cell-based

With `CC(C)=CCC[C@]1(C)[C@@H](CC=C(C)C)C[C@@]2(C)C(=O)[C@]1(C(=O)C(C)C)C(=O)C1=C2O[C@@H](C(C)(C)O)C1` the IC50 (RAW264.7 [1]) was 14.9 µM and the Activity (RAW264.7 [2]) was “Non-toxic”.
With `CC(C)=CCC[C@]1(C)[C@@H](CC=C(C)C)C[C@]2(C)C(=O)C3=C(O[C@@H](C(C)(C)O)C3)[C@@]1(C(=O)C(C)C)C2=O` the IC50 (RAW264.7 [1]) was 27.3 µM and the Activity (RAW264.7 [2]) was “Non-toxic”.
With `CC(C)=CCC[C@]1(C)[C@@H](CC=C(C)C)C[C@]2(C)C(=O)C3=C(O[C@H](C(C)(C)O)C3)[C@@]1(C(=O)C(C)C)C2=O` the IC50 (RAW264.7 [1]) was over 50 µM and the Activity (RAW264.7 [2]) was “Non-toxic”.
For `CC[C@H](C)C(=O)[C@@]12C(=O)C3=C(O[C@@H](C(C)(C)O)C3)[C@@](C)(C[C@H](CC=C(C)C)[C@@]1(C)CCC=C(C)C)C2=O`, the IC50 (RAW264.7 [1]) was 15.2 µM and the Activity (RAW264.7 [2]) was “Non-toxic”.
With `CC[C@H](C)C(=O)[C@]12C(=O)[C@](C)(C[C@H](CC=C(C)C)[C@@]1(C)CCC=C(C)C)C(=O)C1=C2O[C@@H](C(C)(C)O)C1` the IC50 (RAW264.7 [1]) was 14.5 µM and the Activity (RAW264.7 [2]) was “Non-toxic”.
With `CC[C@H](C)C(=O)[C@@]12C(=O)C3=C(O[C@H](C(C)(C)O)C3)[C@@](C)(C[C@H](CC=C(C)C)[C@@]1(C)CCC=C(C)C)C2=O` the IC50 (RAW264.7 [1]) was 18.7 µM and the Activity (RAW264.7 [2]) was “Non-toxic”.
`CC(C)=CCC[C@]1(C)[C@@H](CC=C(C)C)C[C@@]2(C)C(=O)[C@]1(C(=O)C(C)C)C(=O)C1=C2O[C@H](C(C)(C)O)C1` was tested, and the IC50 (RAW264.7 [1]) was 9.5 µM and the Activity (RAW264.7 [2]) was “Non-toxic”.
With `CNC(=N)NCCC[C@H](N)C(=O)O` [TILARGININE] the IC50 (RAW264.7 [1]) was 39.2 µM and the Activity (RAW264.7 [2]) was “Non-toxic”.
For `CC[C@H](C)C(=O)[C@]12C(=O)[C@](C)(C[C@H](CC=C(C)C)[C@@]1(C)CCC=C(C)C)C(=O)C1=C2O[C@H](C(C)(C)O)C1`, the IC50 (RAW264.7 [1]) was 23.7 µM and the Activity (RAW264.7 [2]) was “Non-toxic”.
